Data from patent publication US6743583B2, “Identification of drugs and drug targets by detection of the stress response” (priority 2000, dated 2004).

Key:
alg7 heterozygous strain [1] = conditions: cited from earlier work
alg7 heterozygote = assay: HSP26 promoter GFP-uv reporter stress response, fluorimeter; type: cell-based, Saccharomyces cerevisiae; design: key: F = fluorescent activity from hsp reporter construct, indicating stress response is induced; NF = no fluorescence, no induction of stress response; conditions: predicted expectations
Source text: (§1) Stress response gene reporter constructs are generally constructed as follows: approximately 500 bp to approximately 1,000 bp or more region upstream of the first start codon of the stress gene of interest (the region encompassing the stress response gene promoter) is fused to the coding region of a reporter polypeptide (e.g., GFP-uv in pRS316 (Sikorski and Hieter (1989) Genetics 122(1):19-27, Clontech). In a specific exemplary construct, approximately 500 bp of the sequence upstream of the hsp26 gene were ligated to the coding region of GFP-uv in pRS316 to provide for expression of the GFP-uv reporter polypeptide under control of the HSP26 promoter.
(§2) 80% of all heterozygous deletion strains of Saccharomyces cerevisiae have been constructed. Heterozygous deletion strains were generated using homologous gene transplacement (Rothstein, R. (1991) Meth. Enzymol. 194:281-301) in wild-type diploid strains using standard methods. The resulting heterozygotes carry a deletion in one of the two copies of a given gene.
(§3) The above-described HSP26 construct and a control construct (containing no upstream HSP26 promoter sequence) is transformed into 4 strains: a wildtype strain and strains heterozygous for ALG7, HIS3, and TUB2. The his3 heterozygous strain is sensitive to 3-amino triazole; the alg7 heterozygous strain is sensitive to tunicamycin; and the tub2 heterozygous strain is sensitive to benomyl. The expression of hsp26 activity is then monitored using a fluorimeter. Comparisons (with predicted expectations) are as follows: […]

his3 heterozygote = assay: as above; type: cell-based, Saccharomyces cerevisiae; design: key: F = fluorescent activity from hsp reporter construct, indicating stress response is induced; NF = no fluorescence, no induction of stress response; conditions: predicted expectations
Source text: as §1, §2, §3

tub2 heterozygote = assay: as above; type: cell-based, Saccharomyces cerevisiae; design: key: F = fluorescent activity from hsp reporter construct, indicating stress response is induced; NF = no fluorescence, no induction of stress response; conditions: predicted expectations
Source text: as §1, §2, §3

Wildtype strain [2] = assay: as above; type: cell-based, Saccharomyces cerevisiae; design: key: F = fluorescent activity from hsp reporter construct, indicating stress response is induced; NF = no fluorescence, no induction of stress response; conditions: predicted expectations
Source text: as §1, §3

ymr007w strain = conditions: previously shown, Giaever et al. 1999; cited from earlier work
alg7 heterozygous strain [3] = assay: Microarray fold transcriptional induction of stress response genes; type: cell-based, Saccharomyces cerevisiae; conditions: alg7 heterozygote, tunicamycin 0.6 μM, 1 hr, relative to wildtype no drug
Experimental: (§4) In order to identify stress response genes suitable for use in the methods of the present invention, the induction of various stress response genes was tested using microarrays. Three 50 ml cultures were grown at 30° C., a wildtype strain, an alg7 heterozygous strain, and a ymr007w heterozygous strain (the ymr007w strain has been previously shown to be sensitive to tunicamycin, see Giaever, G. et al. (1999) Nature Genet. 21(3):278-283). The wildtype strain was grown in the absence of drug as well as in the presence of […] tunicamycin at an O.D.600 of 1, or approximately 2×10^7 cells/ml for one hour. The alg7 and ymr007w heterozygotes were grown in the presence of […] tunicamycin at an O.D.600 of 1, or approximately 2×10^7 cells/ml for 1 hour. mRNA was then collected from all four samples using standard techniques. cDNA was then prepared from […] of polyadenylated RNA from each sample, using a dT21 primer and Superscript II reverse transcriptase (GibcoBRL) according to manufacturer's recommendation. cDNA was fragmented using DNAseI (GibcoBRL), biotinylated using ddATP (NEN) and Terminal Transferase (Boehringer), and hybridized to yeast full genome arrays (Affymetrix) as described in L. Wodicka et al. (1997) Nature Biotechnol. 15, 1359-1367. Data was analyzed using Affymetrix software.
(§5) In other experiments, the alg 7 and vmr007 heterozygous deletion strains were tested for induction of the stress response in the presence of 0.6 μM tunicamycin for 1 hr (for detailed methods see Example 4). The numbers indicate the fold induction (positive values) or the fold repression (negative values) relative to that of wildype expression in the absence of drug.

[4] = tested on: ymr007w heterozygous strain; assay: as above; type: cell-based, Saccharomyces cerevisiae; conditions: ymr007w heterozygote, tunicamycin 0.6 μM, 1 hr, relative to wildtype no drug
Experimental: as §4, §5

Wildtype strain [5] = assay: as above; type: cell-based, Saccharomyces cerevisiae
Experimental: as §4
The fold induction of the indicated stress response gene is relative to expression levels in the absence of exposure to the indicated stimuli for the wildtype strain.

[6] = TUN 0.6 μM, wildtype, relative to no drug
[7] = Wildtype, tunicamycin 0.6 μM, 1 hr, relative to wildtype no drug (Table 9)

Question: For tunicamycin, which “sensitivity of strain to drug” value (alg7 heterozygous strain [1]) is on record?
Answer: The value was “sensitive”.

Question: And the “fluorescent activity from hsp26 reporter construct” value (from here on “fluorescent activity”) (alg7 heterozygote)?
Answer: Its value is “NF”.

Question: What about the “fluorescent activity” value (his3 heterozygote) of the same substance?
Answer: The value was “F”.

Question: What about the “fluorescent activity” value (tub2 heterozygote) of the same substance?
Answer: The value was “F”.

Question: What about the “fluorescent activity” value (Wildtype strain [2]) of the same substance?
Answer: Its value is “F”.

Question: And the “sensitivity of strain to drug” value (ymr007w strain)?
Answer: Its value is “sensitive”.

Question: And the “fold induction (positive) or fold repression (negative) of HXT5 (YHR096C)” value (from here on “fold induction … (negative) of HXT5 (YHR096C)”) (alg7 heterozygous strain [3])?
Answer: Its value is 1 fold.

Question: And the “fold induction (positive) or fold repression (negative) of YMR107W” value (from here on “fold induction … (negative) of YMR107W”) (alg7 heterozygous strain [3])?
Answer: Its value is 1 fold.

Question: What about the “fold induction (positive) or fold repression (negative) of HSP26 (YBR072W)” value [4] of the same substance?
Answer: Its value is 1.4 fold.

Question: And the “fold induction … (negative) of HXT5 (YHR096C)” value [4]?
Answer: The value was 1 fold.

Question: What about the “fold induction … (negative) of YMR107W” value [4] of the same substance?
Answer: The value was 1 fold.

Question: And the “fold induction of AMS1 (YGL156W)” value (Wildtype strain [5]; [6])?
Answer: Its value is 20 fold.

Question: What about the “fold induction of DDR48 (YMR173w)” value (Wildtype strain [5]; [6]) of the same substance?
Answer: The value was 4.3 fold.

Question: What about the “fold induction of GFA1 (YKL104C)” value (Wildtype strain [5]; [6]) of the same substance?
Answer: The value was 11.2 fold.

Question: And the “fold induction of GSC2 (YGR032W)” value (Wildtype strain [5]; [6])?
Answer: Its value is 9.2 fold.

Question: What about the “fold induction of HSP10 (YOR020C)” value (Wildtype strain [5]; [6]) of the same substance?
Answer: The value was 2 fold.

Question: And the “fold induction of HSP12 (YFL014W)” value (Wildtype strain [5]; [6])?
Answer: Its value is 2.9 fold.

Question: What about the “fold induction of HSP26 (YBR072W)” value (Wildtype strain [5]; [6]) of the same substance?
Answer: Its value is 18 fold.

Question: What about the “fold induction of HSP30 (YCR021C)” value (Wildtype strain [5]; [6]) of the same substance?
Answer: Its value is 2 fold.

Question: What about the “fold induction of HSP42 (YDR171w)” value (Wildtype strain [5]; [6]) of the same substance?
Answer: The value was 6 fold.

Question: And the “fold induction of HSP60 (YLR259C)” value (Wildtype strain [5]; [6])?
Answer: The value was 1 fold.

Question: What about the “fold induction of HSP78 (YDR258C)” value (Wildtype strain [5]; [6]) of the same substance?
Answer: Its value is 6.5 fold.

Question: And the “fold induction of HSP82 (YPL240C)” value (Wildtype strain [5]; [6])?
Answer: The value was 2.8 fold.

Question: And the “fold induction of HSP104 (YLL026W)” value (Wildtype strain [5]; [6])?
Answer: The value was 2 fold.

Question: And the “fold induction of HXT5 (YHR096C)” value (Wildtype strain [5]; [6])?
Answer: Its value is 200 fold.

Question: What about the “fold induction of ISF1 (YMR081C)” value (Wildtype strain [5]; [6]) of the same substance?
Answer: Its value is 3.5 fold.

Question: And the “fold induction of PAI3 (YMR174C)” value (Wildtype strain [5]; [6])?
Answer: The value was 6.1 fold.

Question: What about the “fold induction of PRY1 (YJL079C)” value (Wildtype strain [5]; [6]) of the same substance?
Answer: The value was 13 fold.

Question: And the “fold induction of PUT1 (YLR142W)” value (Wildtype strain [5]; [6])?
Answer: The value was 25 fold.

Question: And the “fold induction of SNZ3 (YFL059W)” value (Wildtype strain [5]; [6])?
Answer: Its value is 25 fold.

Question: And the “fold induction of SSA1 (YAL005C)” value (Wildtype strain [5]; [6])?
Answer: The value was 1 fold.

Question: And the “fold induction of TSI1 (YLR178C)” value (Wildtype strain [5]; [6])?
Answer: Its value is 6.2 fold.

Question: What about the “fold induction of UBC5 (YDR059c)” value (Wildtype strain [5]; [6]) of the same substance?
Answer: The value was 2.1 fold.

Question: And the “fold induction of YBL049W” value (Wildtype strain [5]; [6])?
Answer: The value was 15 fold.

Question: What about the “fold induction of YDR018C” value (Wildtype strain [5]; [6]) of the same substance?
Answer: Its value is 7.5 fold.

Question: What about the “fold induction of YFL030W” value (Wildtype strain [5]; [6]) of the same substance?
Answer: The value was 11 fold.

Question: What about the “fold induction of YFR026C” value (Wildtype strain [5]; [6]) of the same substance?
Answer: Its value is 20.9 fold.

Question: And the “fold induction of YGR043C” value (Wildtype strain [5]; [6])?
Answer: Its value is 17 fold.

Question: And the “fold induction of YIL042C” value (Wildtype strain [5]; [6])?
Answer: Its value is 5 fold.

Question: What about the “fold induction of YIL117C” value (Wildtype strain [5]; [6]) of the same substance?
Answer: The value was 13 fold.

Question: And the “fold induction of YJL144W” value (Wildtype strain [5]; [6])?
Answer: The value was 19.1 fold.

Question: What about the “fold induction of YKL107W” value (Wildtype strain [5]; [6]) of the same substance?
Answer: Its value is 112 fold.

Question: What about the “fold induction of YLR053C” value (Wildtype strain [5]; [6]) of the same substance?
Answer: The value was 200 fold.

Question: And the “fold induction of YLR080W” value (Wildtype strain [5]; [6])?
Answer: The value was 8.4 fold.

Question: And the “fold induction of YLR194C” value (Wildtype strain [5]; [6])?
Answer: The value was 5.1 fold.

Question: What about the “fold induction of YMR040W” value (Wildtype strain [5]; [6]) of the same substance?
Answer: The value was 12.8 fold.

Question: And the “fold induction of YMR090W” value (Wildtype strain [5]; [6])?
Answer: Its value is 5.6 fold.

Question: What about the “fold induction of YMR107W” value (Wildtype strain [5]; [6]) of the same substance?
Answer: Its value is 79 fold.

Question: And the “fold induction of YNL194C” value (Wildtype strain [5]; [6])?
Answer: The value was 4.5 fold.

Question: What about the “fold induction of YPS3 (YLR121C)” value (Wildtype strain [5]; [6]) of the same substance?
Answer: The value was 15 fold.

Question: And the “fold induction (positive) or fold repression (negative) of HSP26 (YBR072W)” value (Wildtype strain [5]; [7])?
Answer: The value was 17 fold.

Question: And the “fold induction … (negative) of HXT5 (YHR096C)” value (Wildtype strain [5]; [7])?
Answer: Its value is 50 fold.

Question: What about the “fold induction (positive) or fold repression (negative) of YGR043C” value (Wildtype strain [5]; [7]) of the same substance?
Answer: The value was 17 fold.

Question: What about the “fold induction … (negative) of YMR107W” value (Wildtype strain [5]; [7]) of the same substance?
Answer: Its value is 40 fold.

Question: What about the “fold induction (positive) or fold repression (negative) of YPS3 (YLR121C)” value (Wildtype strain [5]; [7]) of the same substance?
Answer: Its value is 15 fold.
